According to patent US20200237742A1, “Serdexmethylphenidate Conjugates, Compositions And Methods Of Use Thereof” (priority 2018, published 2020):
Where a name gives a salt, the structure may show the parent alone.

Legend:
[1] = test system: recreational stimulant abusers; test: Intravenous study, treatment-emergent adverse events; settings: SDX Cl 30 mg (N = 31), d-MPH HCl 15 mg (N = 30)
Description: A study was conducted in humans to assess the intravenous abuse potential of serdexmethylphenidate relative to unconjugated d-methylphenidate and placebo in recreational stimulant abusers. This was a Phase 1, randomized, double-blind study in which serdexmethylphenidate and d-methylphenidate were administered intravenously in recreational stimulant users with a history of non-oral abuse. In Part A of the study, subjects (Cohort 1) participated in a dose-escalation phase to determine the optimal dose of intravenous d-methylphenidate based on tolerability and abuse-related pharmacodynamic assessments. […] The doses of serdexmethylphenidate and d-methylphenidate are equivalent with respect to molar amount of d-methylphenidate. FDA-recommended abuse potential measures and blood samples were collected at different times after dosing. Safety assessments were performed throughout the study.

[2] = test system: healthy, nondependent, recreational stimulant users with intranasal insufflation experience; test: Intranasal abuse potential study, VAS pharmacodynamic assessments
From the text: “Ease of Insufflation” VAS is the measure that assesses the difficulty of snorting the study drugs. Subjects will respond to the statement “Snorting this drug was:” The question will be scored using a 0-100 points unipolar VAS anchored on the left with “Very Easy” (score of 0) and anchored on the right with “Very Difficult” (score of 100).
The study consisted of a Screening Period, an in-clinic Drug Discrimination Phase, a Treatment Phase, and a Follow-Up Visit.
Subjects who successfully completed the Screening Period returned to the clinic to complete the Drug Discrimination Phase. […] Subjects who successfully completed the Drug Discrimination Phase remained as inpatients to enter the Treatment Phase. The Drug Discrimination Phase was a double-blind, intranasal, single-dose, 2-treatment, 2-period, 2-sequence, randomized, crossover design.
All subjects were required to fast for at least 8 hours prior to each dose of study drug until approximately 4 hours after each dose. Abuse potential measures and pharmacokinetic samples were collected at different times after the administration of study drug. Subjects who successfully completed the Drug Discrimination Phase and who qualified for the Treatment Phase remained as inpatients to enter the Treatment Phase.
The placebo dose consisted of 80 mg of microcrystalline cellulose to create the same volume.
On dosing days in the Treatment Phase, blood samples were collected for the measurement of the plasma concentrations of SDX, d-methylphenidate (d-MPH), 1-methylphenidate (1-MPH) and ritalinic acid at predose and at 0.25, 0.5, 0.75, 1, 1.5, 2, 3, 4, 5, 6, 7, 8, 9, 10, 12, 16, 24, 36, and 48 hours ±5 minutes after each dose of study drug. […] All VAS pharmacodynamic assessments except Take Drug Again and Overall Drug Liking were performed at 0.25, 0.5, 0.75, 1, 1.5, 2, 3, 4, 5, 6, 7, 8, 10, 12, 24 hours ±5 minutes postdose. In addition, predose assessments of Feeling High, and Drowsiness/Alertness were collected. The Take Drug Again and Overall Drug Liking VAS assessments were performed at 12 and 24 hours ±5 minutes postdose. Ease of Nasal Insufflation scores were completed within 5 minutes after the completion of each intranasal drug administration during the Treatment Phase.

[3] = 12 hours, SDX Cl 80 mg, d-MPH HCl 40 mg
[4] = 24 hours, SDX Cl 80 mg, d-MPH HCl 40 mg

Structure (SMILES)	TEAE: Change in sustained attention [1]	TEAE: Dry mouth [1]	TEAE: Energy increased [1]	TEAE: Euphoric mood [1]	TEAE: Feeling abnormal [1]	TEAE: Feeling hot [1]	TEAE: Feeling jittery [1]	TEAE: Feeling of relaxation [1]	TEAE: Headache [1]	TEAE: Heart rate increased [1]	TEAE: Hyperhidrosis (sweaty hands) [1]	TEAE: Hypervigilance [1]	TEAE: Nausea [1]	TEAE: Palpitations [1]	TEAE: Paraesthesia (tingling) [1]	TEAE: Sinus tachycardia [1]	TEAE: Somnolence [1]	TEAE: Tachycardia [1]	Median Overall Drug Liking [2, 3]	Median Take Drug Again [2, 3]	also measured
COC(=O)[C@H](c1ccccc1)[C@H]1CCCCN1 [d-methylphenidate hydrochloride, d-threo-methylphenidate hydrochloride]	2 (6.7) n (%)	6 (20.0) n (%)	1 (3.3) n (%)	17 (56.7) n (%)	2 (6.7) n (%)	6 (20.0) n (%)	2 (6.7) n (%)	1 (3.3) n (%)	1 (3.3) n (%)	5 (16.7) n (%)	4 (13.3) n (%)	10 (33.3) n (%)	3 (10.0) n (%)	2 (6.7) n (%)	2 (6.7) n (%)	4 (13.3) n (%)	4 (13.3) n (%)	4 (13.3) n (%)	87	91	Median Overall Drug Liking [2, 4]: 82; Median Take Drug Again [2, 4]: 94; Mean Difference Overall Drug Liking, B vs A ([2]; 24 hours, d-MPH HCl 40 mg vs SDX Cl 80 mg): statistically higher
COC(=O)[C@H](c1ccccc1)[C@H]1CCCCN1C(=O)OC[n+]1cccc(C(=O)N[C@@H](CO)C(=O)O)c1.[Cl-] [serdexmethylphenidate chloride]	0 (0.0) n (%)	0 (0.0) n (%)	2 (6.5) n (%)	4 (12.9) n (%)	1 (3.2) n (%)	2 (6.5) n (%)	0 (0.0) n (%)	0 (0.0) n (%)	1 (3.2) n (%)	0 (0.0) n (%)	1 (3.2) n (%)	4 (12.9) n (%)	0 (0.0) n (%)	0 (0.0) n (%)	0 (0.0) n (%)	0 (0.0) n (%)	1 (3.2) n (%)	0 (0.0) n (%)	58	51	Mean Overall Drug Liking [2, 4]: 59.0; Median Overall Drug Liking [2, 4]: 55; Median Take Drug Again [2, 4]: 50
